# From ChEMBL document CHEMBL4368854, “Assessment of a bifendate derivative bearing a 6,7-dihydro-dibenzo[c,e]azepine scaffold as a potential anti-metastatic agent” (Medchemcomm, 2018)
# pIC50: −log10 of the molar value. Activity calls are given as the source filed them. The calls are words filed in the database; no cut-off is given here.
# Key:
# MDA-MB-231 [1] = experiment: Cytotoxicity against human MDA-MB-231 cells after 72 hrs by MTT assay; assay type: functional, cell-based; conditions: MDA-MB-231, 72 h
# MDA-MB-231 [2] = experiment: Antimigratory activity against human MDA-MB-231 cells assessed as reduction in cell migration towards wound area at 5 to 45 uM measured up to 24 hrs by inverted microscopic analysis; assay type: functional, cell-based
# MDA-MB-231 [3] = experiment: Antimigratory activity against human MDA-MB-231 cells at 15 uM after 24 hrs by crystal violet staining based transwell assay relative to control; assay type: functional
# MDA-MB-231 [4] = experiment: Antimigratory activity against human MDA-MB-231 cells at 45 uM after 24 hrs by crystal violet staining based transwell assay relative to control; assay type: functional
# MDA-MB-231 [5] = experiment: Anti-invasive activity against human MDA-MB-231 cells at 15 uM after 24 hrs by crystal violet staining based matrigel coated transwell assay relative to control; assay type: functional
# MDA-MB-231 [6] = experiment: Anti-invasive activity against human MDA-MB-231 cells at 45 uM after 24 hrs by crystal violet staining based matrigel coated transwell assay relative to control; assay type: functional
# [7] = target: 72 kDa type IV collagenase (Homo sapiens) (UniProt P08253); experiment: Inhibition of MMP2 activity in human MDA-MB-231 cells measured after 24 hrs by coomassie brilliant blue staining based gelatin zymographic method; assay type: cell-based
# Sequence of 72 kDa type IV collagenase (Homo sapiens) (P08253 110-660 limits assumed): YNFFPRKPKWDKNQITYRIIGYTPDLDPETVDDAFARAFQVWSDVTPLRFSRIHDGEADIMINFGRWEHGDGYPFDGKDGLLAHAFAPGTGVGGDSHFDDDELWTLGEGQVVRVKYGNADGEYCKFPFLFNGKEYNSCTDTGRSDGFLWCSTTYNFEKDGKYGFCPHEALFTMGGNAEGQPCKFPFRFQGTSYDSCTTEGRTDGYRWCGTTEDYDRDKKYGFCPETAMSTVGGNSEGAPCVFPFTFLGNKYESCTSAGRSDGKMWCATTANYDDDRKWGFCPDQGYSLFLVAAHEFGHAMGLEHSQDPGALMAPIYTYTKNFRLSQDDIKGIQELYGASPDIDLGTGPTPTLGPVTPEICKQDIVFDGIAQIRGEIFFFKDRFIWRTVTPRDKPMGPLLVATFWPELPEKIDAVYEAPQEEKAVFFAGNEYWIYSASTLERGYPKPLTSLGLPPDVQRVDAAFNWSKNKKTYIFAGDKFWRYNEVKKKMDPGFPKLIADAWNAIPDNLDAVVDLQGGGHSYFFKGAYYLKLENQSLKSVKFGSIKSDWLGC
# [8] = target: Matrix metalloproteinase-9 (Homo sapiens) (UniProt P14780); experiment: Inhibition of MMP9 activity in human MDA-MB-231 cells measured after 24 hrs by coomassie brilliant blue staining based gelatin zymographic method; assay type: cell-based
# Sequence of Matrix metalloproteinase-9 (Homo sapiens) (P14780 whole entry): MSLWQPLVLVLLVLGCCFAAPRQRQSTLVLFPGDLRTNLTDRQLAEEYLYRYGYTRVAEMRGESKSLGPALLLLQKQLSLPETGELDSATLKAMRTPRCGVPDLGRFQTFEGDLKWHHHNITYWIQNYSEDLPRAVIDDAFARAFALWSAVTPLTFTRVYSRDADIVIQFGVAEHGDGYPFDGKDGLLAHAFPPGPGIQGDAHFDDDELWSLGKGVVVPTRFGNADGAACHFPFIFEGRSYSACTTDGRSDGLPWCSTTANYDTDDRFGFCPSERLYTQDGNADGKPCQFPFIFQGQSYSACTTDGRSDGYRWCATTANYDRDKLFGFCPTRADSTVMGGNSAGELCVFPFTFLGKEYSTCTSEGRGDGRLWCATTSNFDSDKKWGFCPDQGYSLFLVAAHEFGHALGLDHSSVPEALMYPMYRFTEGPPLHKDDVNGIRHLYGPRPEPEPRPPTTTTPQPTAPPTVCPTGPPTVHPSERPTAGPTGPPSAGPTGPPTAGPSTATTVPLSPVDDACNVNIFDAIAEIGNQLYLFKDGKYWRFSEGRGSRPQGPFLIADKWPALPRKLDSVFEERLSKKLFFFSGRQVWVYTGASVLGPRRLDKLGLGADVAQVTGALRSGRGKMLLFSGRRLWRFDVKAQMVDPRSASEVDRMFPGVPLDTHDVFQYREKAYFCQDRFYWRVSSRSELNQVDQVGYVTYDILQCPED
# [9] = target: 72 kDa type IV collagenase (Homo sapiens) (UniProt P08253); experiment: Inhibition of MMP2 activity in human MDA-MB-231 cells at 45 uM measured after 24 hrs by coomassie brilliant blue staining based gelatin zymographic method; assay type: cell-based
# [10] = target: Matrix metalloproteinase-9 (Homo sapiens) (UniProt P14780); experiment: Inhibition of MMP9 activity in human MDA-MB-231 cells at 45 uM measured after 24 hrs by coomassie brilliant blue staining based gelatin zymographic method; assay type: cell-based
# MDA-MB-231 [11] = experiment: Down regulation of MMP2 expression in human MDA-MB-231 cells after 24 hrs by Western blot analysis; assay type: functional, cell-based
# MDA-MB-231 [12] = experiment: Down regulation of MMP9 expression in human MDA-MB-231 cells after 24 hrs by Western blot analysis; assay type: functional, cell-based
# MDA-MB-231 [13] = experiment: Antimigratory activity against human MDA-MB-231 cells assessed as reduction in cell migration towards wound area at 45 uM measured up to 24 hrs by inverted microscopic analysis; assay type: functional, cell-based
SMILES,pIC50 (MDA-MB-231 [1]),Activity (MDA-MB-231 [2]),Activity (MDA-MB-231 [3]),Activity (MDA-MB-231 [4]),Activity (MDA-MB-231 [5]),Activity (MDA-MB-231 [6]),inhibition [7],inhibition [8],inhibition [9],inhibition [10],Activity (MDA-MB-231 [11]),Activity (MDA-MB-231 [12]),Activity (MDA-MB-231 [13])
COc1cc2c(c3c1OCO3)-c1c(cc(OC)c3c1OCO3)CN(CCc1ccc3c(c1)OCO3)C2,4.06,Active,32.9%,47.5%,<=54.4%,71.2%,Dose-dependent effect,Dose-dependent effect,56.9%,30.8%,Dose-dependent effect,Dose-dependent effect,–
COC(=O)c1cc(OC)c2c(c1-c1c(C(=O)OC)cc(OC)c3c1OCO3)OCO2,–,–,–,–,–,–,–,–,–,–,–,–,Active
